Results from US20250032511A1, “[…] USE IN TREATMENT OF SUPER […] EPILEPTICUS” (MARINUS PHARMACEUTICALS, INC., priority 2023, published 2025).

Tests used:
[1] = test system: SRSE; details: SRSE patients; anesthesia weaned until seizures started, then higher IV doses; cited from earlier work
[2] = test system: super refractory status epilepticus; test: Case report: intravenous ganaxolone in a patient with super refractory status epilepticus (EEG, mental status); format: in vivo, human
[3] = in contrast to allopregnanolone; cited from earlier work

In the case of `CC(=O)[C@H]1CC[C@H]2[C@@H]3CC[C@H]4C[C@](C)(O)CC[C@]4(C)[C@H]3CC[C@]12C` [Ganaxolone, 3α-hydroxy-3β-methyl-5α-pregnan-20-one], the “clinical outcome of earlier higher-dose regimen” value [1] is given as “showed early success, but seizures returned in some patients when ganaxolone serum levels were reduced”, the “frequency of remaining generalized periodic discharges (GPDs) on EEG in subsequent days” value ([2]; before GNX: 2-4 Hz GPDs, same patient and regimen) is given as “up to 1 Hz” and the “overall outcome of the case” value ([2]; late initiation of GNX (hospital day 52)) is given as “electrographic and clinical improvement”. For the same molecule, the “EEG pattern during GNX infusion” value ([2]; person, SRSE, IV 20 mg bolus, 60 mg/hr first hour, then 42 mg/hr, total 7 days) was “marked improvement in the EEG pattern”, the mental status ([2]; same patient, eye opening, attending, communicating with gestures and facial expressions) was “returned to their premorbid baseline” and the oral bioavailability [3] was “orally bioavailable”.
